# Test results taken from patent publication US20150344426A1, “COMPOUNDS AND THERAPEUTIC USES THEREOF” (ALZHEIMER'S INSTITUTE OF AMERICA, INC., priority 2012, published 2015).
# Assays:
# [1] = Stability in mouse plasma; assay type: in vitro ADME; conditions: read-out: Mouse Plasma t1/2
# Method: (§1) Relative stability of Example Compound Nos. 1 through 60 in mouse plasma and mouse liver microsomal preparations.
# (§2) Certain Example Compounds were each added to a final concentration of 1 μM to 1 mL of each of mouse plasma and mouse liver microsomal preparations (with and without 1 mM NADPH). Stability assays were run in duplicate and were sampled at 0, 5, 15, 30, 60 and 120 minutes as follows: one hundred microliter aliquots of samples were removed at the specified sampling times, and the reaction was quenched with 400 μL of acetonitrile.
# (§3) Samples were analyzed by HPLC-ESI-MS/MS by measuring the peak area of both the starting Example Compound and parent compound (i.e., either Parent Compound A or Parent Compound B) that were created by removal of the Prodrug Moiety (as defined in Section 6 herein).
# [2] = Stability in mouse liver microsomal preparations; assay type: in vitro ADME; conditions: liver microsomes, with and without 1 mM NADPH (not said which), read-out: Mouse Liver Microsomes t1/2
# Method: as §1, §2, §3
# [3] = Stability assessment / semi-quantitative hygroscopicity in a relative humidity (RH) chamber; assay type: physicochemical; conditions: solid in RH chamber; morphology and parent:prodrug composition
# Method: “ND” in Table 2 refers to “No Data”. Purity was determined by HPLC. Melting point was determined by differential scanning calorimetry (“DSC”), and semi-quantitative hygroscopicity was determined in a relative humidity (“RH”) chamber.
# [4] = tested on: HT1080 human fibrosarcoma cancer cells; experiment: Anti-tumor activity in HT1080 human fibrosarcoma xenograft with twice daily dosing; assay type: in vivo; conditions: for animals euthanized due to tumor volume exceeding 1,500 mm^3 / animals died: Example Compound 42 study, cohort of ten; for anti-tumor activity in the HT1080 xenograft model (summary statement): administered orally, twice daily
# Method: One million HT1080 cells were implanted subcutaneously in the right flank of female nude mice (Crl:NU-Fox1^nu). When the median tumor volume (MTV) was approximately 209 mm^3, mice were randomized into four cohorts of ten animals. […] All cohorts were dosed twice daily for 7 days. The mice were observed daily for mortality and signs of toxicity. Tumor volumes and body weights were determined from Days 1 to 22. The results are depicted in FIG. 4.
# [5] = Example Compounds 44/45 study, 12 mg/kg twice daily for 7 days, Day 9
Compound,half-life at 1 µM [1] [min],half-life at 1 µM [2] [min],Stability at 40° C. and 75% RH [3],Stability at 60° C. and 75% RH [3],other results
"CC(=O)OC(C)[n+]1cccc(CNC(=O)Nc2ccc(OCCc3ccccc3-c3ccccc3)cc2)c1 (stereo not shown) [Example 37, 1-[1-(Acetyloxy)ethyl]-3-{[({4-[2-(biphenyl-2-yl)ethoxy]phenyl}carbamoyl)amino]methyl}pyridinium]",> 5,18.7,Deliquesced at 2 Hr No change in composition,Deliquesced at 2 Hr No change in composition,
"CC(=O)OC(C(C)C)[n+]1cccc(CNC(=O)Nc2ccc(OCCc3ccccc3-c3ccccc3)cc2)c1 (stereo not shown) [Example 38, 1-[1-(Acetyloxy)-2-methylpropyl]-3-{[({4-[2-(biphenyl-2-yl)ethoxy]phenyl}carbamoyl)amino]methyl}pyridinium]",> 5,30.9,No change in morphology at 7 days,Deliquesced at 4 days,
"CC(OC(=O)C(C)(C)C)[n+]1cccc(CNC(=O)Nc2ccc(OCCc3ccccc3-c3ccccc3)cc2)c1 (stereo not shown) [Example 39, 3-{[({4-[2-(Biphenyl-2-yl)ethoxy]phenyl}carbamoyl)amino]methyl}-1-{1-[(2,2-dimethylpropanoyl)oxy]ethyl}pyridinium]",27,113,Deliquesced at 2 Hr No change in composition,Deliquesced at 2 Hr No change in composition,
"CC(OC(=O)c1ccccc1)[n+]1cccc(CNC(=O)Nc2ccc(OCCc3ccccc3-c3ccccc3)cc2)c1 (stereo not shown) [Example 42, 1-[1-(Benzoyloxy)ethyl]-3-{[({4-[2-(biphenyl-2-yl)ethoxy]phenyl}carbamoyl)amino]methyl}pyridinium]",,,"No change in morphology at 14 days, only prodrug observed","Deliquesced at 13 days, approx 40:60 parent to prodrug observed","MTV increase ([4]; 4 mg/kg twice daily for 7 days, Day 8): 131%; tumor growth inhibition ([4]; 4 mg/kg twice daily for 7 days, end of dosing, Day 8): 21%; MTV increase ([4]; 4 mg/kg twice daily for 7 days, end of the study, Day 15): 469%; MTV increase ([4]; 6 mg/kg twice daily for 7 days, Day 8): 87%; tumor growth inhibition ([4]; 6 mg/kg twice daily for 7 days, end of dosing, Day 8): 48%; MTV increase ([4]; 6 mg/kg twice daily for 7 days, end of the study, Day 15): 215%; MTV decrease ([4]; 8 mg/kg twice daily for 7 days, Day 8): 4%; tumor regression ([4]; 8 mg/kg twice daily for 7 days, end of dosing, Day 8): 4%; MTV increase ([4]; 8 mg/kg twice daily for 7 days, end of the study, Day 15): 449%; MTV decrease ([4]; 12 mg/kg twice daily for 7 days, Day 8): 38%; tumor regression ([4]; 12 mg/kg twice daily for 7 days, end of dosing, Day 8): 38%; MTV increase ([4]; 12 mg/kg twice daily for 7 days, end of the study, Day 15): 236%; animals euthanized due to tumor volume exceeding 1,500 mm^3 ([4]; 4 mg/kg): three; animals died ([4]; 6 mg/kg): One; animals euthanized due to tumor volume exceeding 1,500 mm^3 ([4]; 6 mg/kg): one; animals died ([4]; 8 mg/kg): One; animals euthanized due to tumor volume exceeding 1,500 mm^3 ([4]; 8 mg/kg): two; animals died ([4]; 12 mg/kg): One; anti-tumor activity in the HT1080 xenograft model (summary statement) ([4]; all doses tested): dose-dependent anti-tumor activity"
"CC(=O)OC[C@@H]1CCCN1C(=O)OC[n+]1cccc(CNC(=O)Nc2ccc(OCCc3ccccc3-c3ccccc3)cc2)c1 [Example 45, 1-{[({(2S)-2-[(Acetyloxy)methyl]pyrrolidin-1-yl}carbonyl)oxy]methyl}-3-{[({4-[2-(biphenyl-2-yl)ethoxy]phenyl}carbamoyl)amino]methyl}pyridinium]",> 5,> 5,,,"MTV decrease [4, 5]: 54%; tumor regression [4, 5]: 54%; tumor growth inhibition relative to vehicle ([4]; Example Compounds 44/45 study, 12 mg/kg twice daily for 7 days, Day 22): 91%; MTV increase ([4]; Example Compounds 44/45 study, 12 mg/kg twice daily for 7 days, end of the study, Day 22): 33%; anti-tumor activity in the HT1080 xenograft model (summary statement) ([4]; all doses tested): significant anti-tumor activity; Tolerability ([4]; xenograft mice, all doses tested, orally twice daily): well tolerated"
"O=C(NCc1ccc[n+](COC(=O)N2CCC[C@H]2CO)c1)Nc1ccc(OCCc2ccccc2-c2ccccc2)cc1 [Example 46, 3-{[({4-[2-(Biphenyl-2-yl)ethoxy]phenyl}carbamoyl)amino]methyl}-1-[({[(2S)-2-(hydroxymethyl)pyrrolidin-1-yl]carbonyl}oxy)methyl]pyridinium]",87.2,1250,,,
"CC(C)C(=O)OC(C)[n+]1cccc(CNC(=O)Nc2ccc(OCCc3ccccc3-c3ccccc3)cc2)c1 (stereo not shown) [Example 47, 3-{[({4-[2-(Biphenyl-2-yl)ethoxy]phenyl}carbamoyl)amino]methyl}-1-{1-[(2-methylpropanoyl)oxy]ethyl}pyridinium]",,,"No change in morphology at 14 days, only prodrug observed",Approximately 45:55 parent to prodrug observed after 14 days,
"COC(=O)CNC(=O)OC[n+]1cccc(CNC(=O)Nc2ccc(OCCc3ccccc3-c3ccccc3)cc2)c1 [Example 48, Methyl N-{[(3-{[({4-[2-(biphenyl-2-yl)ethoxy]phenyl}carbamoyl)amino]methyl}pyridinium-1-yl)methoxy]carbonyl}glycinate]",,,Deliquesced at 2 hr No decomposition observed,Deliquesced at 2 hr No decomposition observed,
"COC(=O)CCNC(=O)OC[n+]1cccc(CNC(=O)Nc2ccc(OCCc3ccccc3-c3ccccc3)cc2)c1 [Example 49, Methyl N-{[(3-{[({4-[2-(biphenyl-2-yl)ethoxy]phenyl}carbamoyl)amino]methyl}pyridinium-1-yl)methoxy]carbonyl}-beta-alaninate]",,,Deliquesced at 24 hrs No decomposition observed,Deliquesced at 7 days,
"COC(=O)CN(C)C(=O)OC[n+]1cccc(CNC(=O)Nc2ccc(OCCc3ccccc3-c3ccccc3)cc2)c1 [Example 50, Methyl N-{[(3-{[({4-[2-(biphenyl-2-yl)ethoxy]phenyl}carbamoyl)amino]methyl}pyridinium-1-yl)methoxy]carbonyl}-N-methylglycinate]",,,"No change in morphology at 14 days, only prodrug observed",Oiled out at 2 days No decomposition observed,
"O=C(NCc1ccc[n+](COC(=O)c2cccnc2)c1)Nc1ccc(OCCc2ccccc2-c2ccccc2)cc1 [Example 53, 3-{[({4-[2-(Biphenyl-2-yl)ethoxy]phenyl)carbamoyl)amino]methyl}-1-{[(pyridin-3-ylcarbonyl)oxy]methyl}pyridinium]",,,,All prodrug decomposed to parent at 24 h,
"COC(=O)CCC(=O)OC[n+]1cccc(CNC(=O)Nc2ccc(OCCc3ccccc3-c3ccccc3)cc2)c1 [Example 54, 3-{[({4-[2-(Biphenyl-2-yl)ethoxy]phenyl}carbamoyl)amino]methyl}-1-{[(4-methoxy-4-oxobutanoyl)oxy]methyl}pyridinium]",,,,Deliquesced at 4 days,
"O=C(NCc1ccc[n+](COC(=O)c2ccccc2O)c1)Nc1ccc(OCCc2ccccc2-c2ccccc2)cc1 [Example 55, 3-{[({4-[2-(Biphenyl-2-yl)ethoxy]phenyl}carbamoyl)amino]methyl}-1-{[(2-hydroxybenzoyl)oxy]methyl}pyridinium]",,,Deliquesced at 4 h,Deliquesced at 4 h,
"O=C(NCc1ccc[n+](COC(=O)N2CCCC2)c1)Nc1ccc(OCCc2ccccc2-c2ccccc2)cc1 [Example 59, 3-{[({4-[2-(Biphenyl-2-yl)ethoxy]phenyl}carbamoyl)amino]methyl}-1-{[(pyrrolidin-1-ylcarbonyl)oxy]methyl}pyridinium]",,,,Deliquesced at 4 h,
"O=C(NCc1ccc[n+](COC(=O)N2CCOCC2)c1)Nc1ccc(OCCc2ccccc2-c2ccccc2)cc1 [Example 60, 3-{[({4-[2-(Biphenyl-2-yl)ethoxy]phenyl}carbamoyl)amino]methyl}-1-{[(morpholin-4-ylcarbonyl)oxy]methyl}pyridinium]",,,Deliquesced at 4 h,Deliquesced at 4 h,
